Target: T1, CYP2J2 (Homo sapiens, UniProt P51589)
T1 construct: from tissue; host or cells: pooled human liver microsomes
T1 sequence (P51589 1-502): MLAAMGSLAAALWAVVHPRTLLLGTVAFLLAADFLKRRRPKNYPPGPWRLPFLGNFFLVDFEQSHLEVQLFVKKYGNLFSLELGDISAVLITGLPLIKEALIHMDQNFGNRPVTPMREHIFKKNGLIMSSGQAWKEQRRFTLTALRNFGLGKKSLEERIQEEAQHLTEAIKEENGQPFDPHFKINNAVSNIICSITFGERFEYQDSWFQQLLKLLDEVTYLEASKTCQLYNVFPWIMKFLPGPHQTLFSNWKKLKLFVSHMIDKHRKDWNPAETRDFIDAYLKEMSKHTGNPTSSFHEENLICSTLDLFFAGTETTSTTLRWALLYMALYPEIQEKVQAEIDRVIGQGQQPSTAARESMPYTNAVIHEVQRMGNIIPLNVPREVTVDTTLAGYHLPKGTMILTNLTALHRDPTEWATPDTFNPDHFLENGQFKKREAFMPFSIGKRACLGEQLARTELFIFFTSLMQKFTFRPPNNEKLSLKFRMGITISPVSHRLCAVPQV
Assay: CYP2J2 inhibition (astemizole O-demethylation) in pooled human liver microsomes, LC-MS/MS
Format: in vitro ADME
Details: IC50 P450 isoform 2J2, pooled HLMs 0.25 mg/mL, astemizole 1.0 μM
Protocol: The inhibitory effects of two selaginellins on the metabolism of ten P450 probe substrates were evaluated using previously reported method with minor modification. Phenacetin O-deethylase, coumarin 7-hydroxylase, bupropion 4-hydroxylase, amodiaquine N-deethylase, tolbutamide 4-hydroxylase, omeprazole 5-hydroxylase, dextromethorphan O-demethylase, chlorzoxazone 6-hydroxylase and midazolam 1′-hydroxylase activities were determined as probe activities for CYP1A2, CYP2A6, CYP2B6, CYP2C8, CYP2C9, CYP2C19, CYP2D6, CYP2E1 and […], respectively, using substrate cocktail incubation and tandem mass spectrometry (Table 2). Selaginellins were dissolved in methanol. The final concentrations of organic solvent (methanol) for the cocktail incubation conditions in all experiments were 1.0% (v/v). In brief, the incubation mixtures containing pooled HLMs (0.25 mg/mL, H2630, Xenotech), P450 probe substrate cocktail, and inhibitor (0, 0.5, 2, 5, 20 and 50 μM) were preincubated at 37 °C for 5 min. […] After mixing and centrifugation, aliquots were analyzed by liquid chromatography-tandem mass spectrometry (LC-MS/MS) as previous described. The CYP2J2 inhibitory effects of two selaginellins were also evaluated in pooled HLMs using previously reported method. […]

Structure (SMILES) | IC50
COc1ccc(C(=C2C=CC(=O)C=C2)c2c(-c3ccc(O)cc3)ccc(CO)c2C#Cc2ccc(O)cc2)cc1 [Selaginellin M] | 2.7 µM
O=C1C=CC(=C(c2ccc(O)cc2)c2c(-c3ccc(O)cc3)ccc(CO)c2C#Cc2ccc(O)cc2)C=C1 [Selaginellin] | 0.8 µM

Source: article PMC6151550, “Inhibitory Effect of Selaginellins from Selaginella tamariscina (Beauv.) Spring against Cytochrome P450 and Uridine 5′-Diphosphoglucuronosyltransferase Isoforms on Human Liver Microsomes” (Molecules : A Journal of Synthetic Chemistry and Natural …, 2017)
